The results in this text go back to patent US9139652B2, “Method for increasing M1 macrophages in a patient” (TRANSGENE SA, priority 2011, dated 2015).

Data set [1] has as its system IL-12p70 and IL-10 secretion by macrophages. Briefly: Human macrophage differentiation assay: IL-12p70 and IL-10 in day-6 culture supernatants. The note with it: for IL-12p70 secretion: detection limit 1 pg/ml. Type of data set: cell-based. The procedure: IL-12p70 and IL-10 were titrated in the culture supernatants from day-6 macrophages differentiated in the presence of mAb H27K15 (1 μg/ml), GW2580 (1 μM) or their respective negative controls rituximab or no treatment. Left panel: IL-12p70 and IL-10 levels (pg/ml) in macrophage cultures from 3 blood donors. Right: IL-12p70 (pg/ml)/IL-10 (pg/ml) ratios were calculated for each blood donor and each culture condition. In samples where IL-12p70 was undetectable (below the detection limit of 1 pg/m)l, its level was arbitrarily set at 1 pg/ml for the calculation of IL-12p70/IL-10 ratios.
(§1) Buffy coats were provided by the Etablissement Francais du Sang (EFS, Strasbourg). Peripheral blood mononucleated cells (PBMC) were obtained by centrifugation on a ficoll gradient. Monocytes were purified by immunomagnetic cell sorting, using CD14-antibody-coated beads (Miltenyii). Enriched monocyte suspensions were more than 95% pure. Monocytes were differentiated for 6 days in 48-well plates (3×10^5 cells/well) in RPMI-Glutamax™ medium supplemented with 10% heat inactivated fetal calf serum and 1% tri-antibiotic mixture (penicillin, streptomycin, neomycin). GM-CSF (10 ng/ml) was added in the cell culture medium from day 0 to day 3. H27K15, other antibodies or internal control GW2580 (LC Labs) were added at day 0. On day 3 post-isolation, monocytes were washed with PBS and further cultivated in medium supplemented with CSF-1 (10 ng/ml) and GM-CSF (2 ng/ml), in the presence or absence of antibodies or GW2580. On day 6, supernatants were collected and stored at −20° C. Cells were detached from the plastic and pools of triplicates were analyzed by IC/FC (immunocytochemistry/flow cytometry) for cell sizes and expression of FcγR and CD86. Cytokines and chemokines were quantified in the culture supernatants by multiplex (Bioplex, Bio-Rad) or by ELISA.
To study whether mAb H27K15 could affect macrophage differentiation, purified CD14^+ monocytes were cultured for […] in the presence of GM-CSF and CSF-1, known to induce respectively M1- and M2-type macrophages (Akagawa K. S., 2002; Verreck F. A. et al., 2004). Three different doses of mab H27K15 or isotype control rituximab (0.1; 1 or 10 μg/ml) were added to the culture medium at the beginning of the culture and again 3 days later. F(ab′)2 generated from H27K15 or from rituximab were tested in parallel at equivalent molar concentrations. F(ab′)2 generated from mAb 1.2 SM (WO 2009/026303) was tested for comparison with the F(ab′)2 derived from H27K15 or rituximab. The known blocking mAb to human CD115, 2-4A5, or the non-blocking mAb 9-4D2 (Sherr C. J. et al., 1989) were assayed and compared with isotype control rat IgG1. […]

In data set [2] the test system is CD86^bright SSC^low macrophage population. Kind of data set: Human macrophage differentiation assay: CD86^bright SSC^low population by IC/FC. The class given is cell-based. Conditions: day-6 macrophages, GW2580 vs no treatment. How it is done:
Upper panels: Dot plots showing CD86 staining (x-axis) and side scatter (SSC, y-axis) of macrophages from donor 3 differentiated for 6 days in the presence of H27K15 (left) or negative control rituximab (right). A gate was set on the CD86^bright SSC^low cell population induced by H27K15. Lower panel: Percentages of CD86^bright SSC^low cells with the test compounds at 10, 1 or 0.1 μg/ml* were compared with those in the corresponding negative controls: H27K15 vs rituximab, H27K15-derived F(ab′)2 vs rituximab-derived F(ab′)2, GW2580 vs no treatment. Percentages of increase in the CD86^bright SSC^low cell population were calculated as: 100×percentage of CD86^bright SSC^low cells with test compound/percentage of CD86^bright SSC^low cells with control. Shown are the mean percentages of increase in the CD86^bright SSC^low cell population from the 3 blood donors. *except for F(ab′)2: 6.6; 0.6; and 0.06 μg/ml.
(§2) Buffy coats were provided by the Etablissement Francais du Sang (EFS, Strasbourg). Peripheral blood mononucleated cells (PBMC) were obtained by centrifugation on a ficoll gradient. […] Cells were detached from the plastic and pools of triplicates were analyzed by IC/FC (immunocytochemistry/flow cytometry) for cell sizes and expression of FcγR and CD86. Cytokines and chemokines were quantified in the culture supernatants by multiplex (Bioplex, Bio-Rad) or by ELISA. […]

For data set [3], the system named is CD163-positive M2-type macrophages. Briefly: Flow cytometry of CD163-positive cells in day-6 macrophages. The class given is cell-based, human. Conditions: 3 donors. How it is done:
FIG. 7 Cells obtained after 6-day culture with GM-CSF and CSF-1 were harvested and incubated for 20 min at 4° C. with PBS containing human IgG Fc fragments to saturate Fc receptors. Fluorochrome-conjugated mAbs (anti-CD14-PerCP-Cy5.5, anti-CD163-PE, anti-CD206-APC, anti-CD1a-FITC, BD Biosciences) were then incubated with each sample for 20 min at 4° C. FCM analysis was performed using a FACS LSR-II (BD biosciences) with the DIVA software. Data from 3 different blood donors are presented.
as §2, with “gradient. Monocytes were purified by immunomagnetic cell sorting, using CD14-antibody-coated beads (Miltenyii). Enriched monocyte suspensions were more than 95% pure.” for “gradient.”
The surface expression of CD163 was analyzed by flow cytometry in day-6 macrophages derived from human monocytes cultured with GM-CSF and CSF-1. […]
Background: In flow cytometry, cells or beads pass a laser one at a time.

For data set [4], the system named is MMP-9 production by monocytes cultured with GM-CSF and CSF-1. Kind of data set: MMP-9 ELISA in day-6 supernatants of monocytes cultured with GM-CSF and CSF-1. The class given is cell-based, human. Conditions: GW2580, effect in 2 out of 3 donors. How it is done:
FIG. 6. Monocytes isolated from 3 different blood donors were differentiated for 6 days in the presence of GM-CSF and CSF-1, with or without mAb H27K15, Rituximab or GW2580. MAb H27K15 or Rituximab (0.1, 1 or 10 μg/ml) or equimolar concentrations of F(ab)′2 derived from both mAbs were added to the cultures. MMP-9 was titrated by ELISA (R&D Systems) in day-6 culture supernatants.
Buffy coats were provided by the Etablissement Francais du Sang (EFS, Strasbourg). Peripheral blood mononucleated cells (PBMC) were obtained by centrifugation on a ficoll gradient. Monocytes were purified by immunomagnetic cell sorting, using CD14-antibody-coated beads (Miltenyii). Enriched monocyte suspensions were more than 95% pure. […] Cells were detached from the plastic and pools of triplicates were analyzed by IC/FC (immunocytochemistry/flow cytometry) for cell sizes and expression of FcγR and CD86. Cytokines and chemokines were quantified in the culture supernatants by multiplex (Bioplex, Bio-Rad) or by ELISA.
CD14^+ monocytes from 3 different donors were allowed to differentiate in the presence of both GM-CSF and CSF-1, known to induce macrophage differentiation towards respectively the M1- and M2-types. […] After 6 days of culture, MMP-9 concentrations were measured in the supernatants by ELISA (FIG. 6). […]

Data set [5] relates to CD64 (FcγRI) expression in human macrophages. Kind of data set: Human macrophage differentiation assay: surface CD64 expression by IC/FC. Type of data set: cell-based. The note with it: day-6 macrophages, GW2580 vs no treatment. How it is done: Macrophages obtained following a 6-day culture of monocytes from 3 different blood donors with GM-CSF and CSF-1 were analyzed by IC/FC for surface expression of CD64. Upper panels: CD64 staining in cultures from donor 1 treated with monoclonal antibody H27K15 (left, bold line) or with GW2580 (right, bold line) or their respective negative controls rituximab (left, thin line) or no treatment (right, thin line). Lower panel: Medians of fluorescence intensities in macrophage cultures treated with test compounds at 10, 1 or 0.1 μg/ml* were compared with those in the corresponding negative controls: H27K15 vs rituximab, H27K15-derived F(ab′)2 vs rituximab-derived F(ab′)2, mAbs 2-4A5 or 9-4D2 vs rat IgG1, GW2580 vs no treatment. Percentages of reduction in CD64 expression were calculated as: 100−[100×Median fluorescence intensity with test compound/Median fluorescence intensity with control]. […]
Buffy coats were provided by the Etablissement Francais du Sang (EFS, Strasbourg). […] Cells were detached from the plastic and pools of triplicates were analyzed by IC/FC (immunocytochemistry/flow cytometry) for cell sizes and expression of FcγR and CD86. Cytokines and chemokines were quantified in the culture supernatants by multiplex (Bioplex, Bio-Rad) or by ELISA. […]

Data set [6] relates to MCP-1/CCL2 secretion by macrophages. Briefly: Human macrophage differentiation assay: MCP-1 in day-6 culture supernatants. The class given is cell-based. The note with it: day-6 macrophage supernatants, GW2580 1 μM vs no treatment. The procedure:
MCP-1 and IL-6 were titrated in the culture supernatants from day-6 macrophages differentiated in the presence of mAb H27K15 (1 μg/ml), GW2580 (1 μM) or their respective negative controls rituximab or no treatment. Percentages of reduction in MCP-1 (upper panel) or in IL-6 production (lower panel) were calculated for the 3 blood donors as: 100−[100×cytokine concentration with test compound (pg/ml)/cytokine concentration with control (pg/ml)].
as §1, with “H27K15, other antibodies or internal control GW2580 (LC Labs) were added at day 0. On day 3 post-isolation, monocytes were washed with PBS and further cultivated in medium supplemented with CSF-1 (10 ng/ml) and GM-CSF (2 ng/ml), in the presence or absence of antibodies or GW2580. On day 6, supernatants were collected and stored at −20° C.” left out, “ELISA. […]” for “ELISA.”

Data set [7] concerns differentiating macrophages. Briefly: Human macrophage differentiation assay: cytotoxicity / cell counts at day 6. The class given is cell-based.
From the text: Cells were counted following a 6-day culture of monocytes with GM-CSF and CSF-1, in the presence or absence of anti-CD115 mAbs or F(ab′)2 or with GW2580. Controls included cultures treated with rituximab or rituximab F(ab′)2, or without any added compound.
as §1, with “Enriched monocyte suspensions were more than 95% pure.” left out
Three different doses of mab H27K15 or isotype control rituximab (0.1; 1 or 10 μg/ml) were added to the culture medium at the beginning of the culture and again 3 days later. F(ab′)2 generated from H27K15 or from rituximab were tested in parallel at equivalent molar concentrations.
Cell viability was analyzed at day 6 by counting 5 microscope fields in each well of the plate (one in the center of the well and four fields at mid-distance between the center and the side of the well).

Read-outs that look alike come from different tables or passages of the source.

For the compound `COc1ccc(COc2ccc(Cc3cnc(N)nc3N)cc2OC)cc1` [GW2580], in data set [1] (GW2580 1 μM), the IL-10 production entry is recorded as “inhibition of IL-10 production” and the IL-12p70 secretion result is recorded as “not detectable”. The IL-12p70/IL-10 ratios result in data set [1] (GW2580 1 μM vs no treatment) was “increased”. For the same compound, in data set [2], the “Induction of CD86^bright SSC^low cell sub-population” value is “had appeared”. The “Differentiation of the CD163+ macrophage population (CD163 expression)” value in data set [3] was “had the same effect in only ⅔ donors”. Moreover, in data set [4], the MMP-9 production entry is on record as “dose-dependent decrease”. Further, the “Surface expression of CD64” value in data set [5] is “drastically reduced”. In addition, the “Suppression of MCP-1 production” value in data set [6] is “as efficacious as H27K15”. For the same compound, the “Microscopical observation of day-6 cultures (cytotoxicity)” value (from here on “Microscopical observation”) in data set [7] (1 μM, all blood donors, debris and less density of cells) is “relative cytotoxicity”. Besides, the “Macrophage number remaining at day 6 compared with untreated cultures” value in data set [7] (GW2580 1 μM, cell counts in 5 microscope fields (FIG. 1)) is “approximately 70%”.
With “Rituximab F(ab′)2: F(ab′)2 produced by pepsine digestion of rituximab, negative control”, in data set [7] (compared with untreated cells, independently of the blood donor, monocytes cultured with GM-CSF and CSF-1), the “Microscopical observation” value is recorded as “no obvious differences”.
Consider “Rituximab: human IgG1 isotype control, obtained from Roche”, for which the IL-12p70 secretion result in data set [1] (3 blood donors, mAb 1 μg/ml) is on record as “did not produce any detectable IL-12p70”. Besides, the “Microscopical observation” value in data set [7] was “no obvious differences”.
